Where “and” joins values, the source holds several entries; their conditions need not be identical. Identical values can stand only once.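 These data come from cells grown in 96-well plates and exposed to compound for 48 hours at five concentrations. GI50: concentration for 50% inhibition of growth. Definition used: TGI = concentration required for complete inhibition of growth.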 Where only a bound is given, the exact number is not on record here.

One assay has as its system SF-295 CNS. As to the kind of experiment: growth of human tumour cells (NCI), 48 h.
Take `O=[N+]([O-])c1ccc(C=Cc2ccccc2)cc1.[C-]#[O+].[C-]#[O+].[C-]#[O+].[Cr]`: the GI50 is 42.1 µM and the TGI was > 100 µM.

With `OCC1OC(n2cnc3c(N/N=C\c4ccccn4)ncnc32)C(O)C1O` (configuration not stated), the GI50 was 0.936 µM and the TGI was 16.5 µM.

`COc1cccc(OC(=O)c2ccc(C(F)(F)F)nc2Nc2cc(Cl)ccc2C)c1`: the GI50 is 23.9 µM and the TGI came out at 48.2 µM.

As for `c1cnn2ncc(-c3ccnc(NCCCN4CCOCC4)n3)c2c1`, the GI50 was 5.81 µM and the TGI is > 20.4 µM.

For `O=C(Nc1ccc(OCc2nnc(-c3ccc(Cl)cc3)o2)c(F)c1)Nc1ccc(Cl)c(C(F)(F)F)c1`, the GI50 is 2.26 µM and the TGI was 6.99 µM.

With `COc1ccc2c(c1)N(CCO)C1=C(C(=O)OC1)C2c1cccc(F)c1` (configuration not stated), the GI50 was 0.196 µM and the TGI is > 50 µM.

Consider `C/C(=C\c1ccc2ccccc2c1)[N+](=O)[O-]`, for which the GI50 is 13.1 µM and the TGI turned out to be 27.6 µM.

With `C=CC(=O)Nc1cccc(Oc2nc(Nc3ccc(N4CCN(C)CC4)cc3)nc3ccsc23)c1`, the GI50 was 7.68 µM; the TGI was > 10 µM and 21.3 µM.

For the compound `OCc1ccc(N2CCCC2c2ccccc2)cc1Cl` (configuration not stated), the GI50 is 2.34 µM and the TGI turned out to be 7.77 µM.

Regarding `COC1C=COC2(C)Oc3c(C)c(O)c4c(c3C2=O)/C(=N/C2CCC(O)OC2C)C=C(NC(=O)/C(C)=C\C(=O)C2CC2C(O)C(C)C(O)C(C)C(OC(C)=O)C1C)C4=O` (configuration not stated), the TGI is 13.3 µM.

On to `CC(=O)/C=C/c1cn(C(=O)OC(C)(C)C)c2ccc(Br)cc12`, for which the GI50 was 14.1 µM and the TGI came out at 28.8 µM.

For `CCOc1ccccc1C(=O)N1CCN(c2cc(Cl)cc(Cl)c2)CC1`, the GI50 was 0.0252 µM and the TGI stood at 0.779 µM.

For `NC(CSC1c2ccccc2-c2ccccc21)C(=O)O` (configuration not stated), the TGI is > 100 µM.

`Cc1cc(S(=O)(=O)/N=C(/N)Nc2ccccc2O)c(SCc2ccccc2)cc1Cl`: the GI50 was 19 µM and the TGI is 39.5 µM.

For the compound `COc1cc2c(c(OC)c1OC)-c1ccc(SC)c(=O)cc1C(NC(=O)c1ccccc1)CC2` (configuration not stated), the TGI is < 0.0133 µM.

For the compound `O=C1CCC(N2Cc3cc(CNC(=O)C(F)(F)c4ccc(Cl)cc4)ccc3C2=O)C(=O)N1` (configuration not stated), the GI50 is > 100 µM and the TGI was > 100 µM.

Another assay deals with SK-MEL-2 melanoma. Description: growth of human tumour cells (NCI), 48 h.
Take `O=[N+]([O-])c1ccc(C=Cc2ccccc2)cc1.[C-]#[O+].[C-]#[O+].[C-]#[O+].[Cr]`: the GI50 was 57.7 µM and the TGI is > 100 µM.

For `OCC1OC(n2cnc3c(N/N=C\c4ccccn4)ncnc32)C(O)C1O` (configuration not stated), the GI50 is 0.611 µM and the TGI is > 100 µM.

As for `COc1cccc(OC(=O)c2ccc(C(F)(F)F)nc2Nc2cc(Cl)ccc2C)c1`, the GI50 was 12.9 µM and the TGI turned out to be 50.2 µM.

In the case of `c1cnn2ncc(-c3ccnc(NCCCN4CCOCC4)n3)c2c1`, the GI50 was 5.12 µM and the TGI was found to be 13.9 µM.

Consider `O=C(Nc1ccc(OCc2nnc(-c3ccc(Cl)cc3)o2)c(F)c1)Nc1ccc(Cl)c(C(F)(F)F)c1`, for which the GI50 is 3.17 µM and the TGI came to 9.48 µM.

Consider `COc1ccc2c(c1)N(CCO)C1=C(C(=O)OC1)C2c1cccc(F)c1` (configuration not stated), for which the GI50 is 0.801 µM and the TGI is > 36.2 µM.

On to `C/C(=C\c1ccc2ccccc2c1)[N+](=O)[O-]`, for which the GI50 is 1.85 µM and the TGI amounted to 3.35 µM.

With `C=CC(=O)Nc1cccc(Oc2nc(Nc3ccc(N4CCN(C)CC4)cc3)nc3ccsc23)c1`, the GI50 was 2.85 µM and 2.49 µM; the TGI was 8.48 µM and 5 µM.

Turning to `OCc1ccc(N2CCCC2c2ccccc2)cc1Cl` (configuration not stated), the GI50 was 2.31 µM and the TGI stood at 6.97 µM.

With `COC1C=COC2(C)Oc3c(C)c(O)c4c(c3C2=O)/C(=N/C2CCC(O)OC2C)C=C(NC(=O)/C(C)=C\C(=O)C2CC2C(O)C(C)C(O)C(C)C(OC(C)=O)C1C)C4=O` (configuration not stated), the TGI came to 12.4 µM.

On to `CC(=O)/C=C/c1cn(C(=O)OC(C)(C)C)c2ccc(Br)cc12`, for which the GI50 was 20.9 µM and the TGI came to 54.6 µM.

On to `CCOc1ccccc1C(=O)N1CCN(c2cc(Cl)cc(Cl)c2)CC1`, for which the GI50 is 1.13 µM and the TGI worked out at 18.4 µM.

Take `NC(CSC1c2ccccc2-c2ccccc21)C(=O)O` (configuration not stated): the TGI was > 100 µM.

`Cc1cc(S(=O)(=O)/N=C(/N)Nc2ccccc2O)c(SCc2ccccc2)cc1Cl`: the GI50 is 10.6 µM and the TGI turned out to be 26.2 µM.

Consider `COc1cc2c(c(OC)c1OC)-c1ccc(SC)c(=O)cc1C(NC(=O)c1ccccc1)CC2` (configuration not stated), for which the TGI was < 0.215 µM.

Consider `O=C1CCC(N2Cc3cc(CNC(=O)C(F)(F)c4ccc(Cl)cc4)ccc3C2=O)C(=O)N1` (configuration not stated), for which the GI50 is > 100 µM and the TGI was > 100 µM.

Another assay deals with SK-MEL-28 melanoma. As to the kind of experiment: growth of human tumour cells (NCI), 48 h.
For `O=[N+]([O-])c1ccc(C=Cc2ccccc2)cc1.[C-]#[O+].[C-]#[O+].[C-]#[O+].[Cr]`, the GI50 is > 100 µM and the TGI was > 100 µM.

Regarding `OCC1OC(n2cnc3c(N/N=C\c4ccccn4)ncnc32)C(O)C1O` (configuration not stated), the GI50 is 0.995 µM and the TGI was > 100 µM.

With `COc1cccc(OC(=O)c2ccc(C(F)(F)F)nc2Nc2cc(Cl)ccc2C)c1`, the GI50 was 9.26 µM and the TGI was > 100 µM.

Take `c1cnn2ncc(-c3ccnc(NCCCN4CCOCC4)n3)c2c1`: the GI50 was 5.65 µM and the TGI was > 18 µM.

Turning to `O=C(Nc1ccc(OCc2nnc(-c3ccc(Cl)cc3)o2)c(F)c1)Nc1ccc(Cl)c(C(F)(F)F)c1`, the GI50 was 3.02 µM and the TGI came out at 13.5 µM.

Take `COc1ccc2c(c1)N(CCO)C1=C(C(=O)OC1)C2c1cccc(F)c1` (configuration not stated): the GI50 was 5.59 µM and the TGI was > 50 µM.

Turning to `C/C(=C\c1ccc2ccccc2c1)[N+](=O)[O-]`, the GI50 was 1.95 µM and the TGI came to 4.06 µM.

Values taken from PubChem BioAssay (NCI).
